Activity calls are given as the source filed them.

Assay [1] in a line: Luminescence Cell-Based Dose Retest to Confirm Inhibitors of Cancer Stem Cells. [Related pubchem assays (depositor defined):AID2717, AID2721]. Format: functional. The note with it: Homo sapiens.
In assay [2] the target is T1, Heat shock factor protein 1 (Mus musculus, UniProt P38532).
T1 sequence (P38532 whole entry): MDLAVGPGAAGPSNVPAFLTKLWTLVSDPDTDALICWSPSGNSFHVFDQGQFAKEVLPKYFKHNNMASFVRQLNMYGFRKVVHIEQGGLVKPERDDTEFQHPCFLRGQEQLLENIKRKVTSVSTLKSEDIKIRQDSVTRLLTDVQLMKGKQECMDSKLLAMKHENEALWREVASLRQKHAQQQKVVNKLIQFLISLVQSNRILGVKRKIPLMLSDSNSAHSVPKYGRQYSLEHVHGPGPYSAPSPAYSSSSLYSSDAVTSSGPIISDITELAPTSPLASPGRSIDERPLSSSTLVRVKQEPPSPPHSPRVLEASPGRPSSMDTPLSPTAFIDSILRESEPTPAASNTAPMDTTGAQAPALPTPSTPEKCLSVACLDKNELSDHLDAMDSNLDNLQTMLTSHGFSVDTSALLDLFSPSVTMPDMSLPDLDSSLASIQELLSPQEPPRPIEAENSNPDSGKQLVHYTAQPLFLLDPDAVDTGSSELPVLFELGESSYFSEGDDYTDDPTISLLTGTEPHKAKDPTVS
Description: HSF1 potentiators in luciferase reporter cells, confirmation, cell-based, NIH3T3, luminescence, dose retest (AID 435004).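 Also: stress induced by proteasome inhibitor MG132 added 30 min after compound; luciferase reporter driven by HSF1 response element in NIH3T3 cells; actives raise luminescence as potentiators of the MG132 stress response.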 The class given is functional.

Assay [3] in a line: HEp-2 cell cytotoxicity, dose response, cytotoxicity control for RSV inhibitor project, HTS (AID 2410). Format: functional. The note with it: human respiratory syncytial virus.
For assay [4], the target named is Luciferin 4-monooxygenase (Photinus pyralis, UniProt P08659). The experiment in a line: firefly luciferase enzyme inhibitors, dose response, biochemical, luminescence (AID 1891).
Assay [5] is described as follows: Luminescence Cell-Based Dose Confirmation HTS to Identify Inhibitors of Platelet Dense Granule Release. [Related pubchem assays: 1663 (Primary HTS), 1678 (Summary of Project)]. The class given is functional.
In assay [6] the target is Cytochrome P450 3A4 (Homo sapiens, UniProt P08684).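 Also: CYP3A4 tested as one member of a cytochrome P450 panel screen.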
In assay [7] the target is Cytochrome P450 2D6 (Homo sapiens, UniProt P10635).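 Also: CYP2D6 member of a cytochrome P450 panel assay.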
The target in assay [8] is Cytochrome P450 2C19 (Homo sapiens, UniProt P33261). The experiment in a line: Cytochrome panel assay with activity outcomes. Panel member name: p450-cyp2c19 Compounds with AC50 equal or less than 10 uM are considered active. Format: functional. The note with it: read-out: AC50.
In assay [9] the target is Cytochrome P450 2C9 (Homo sapiens, UniProt P11712).
Assay [10] has as its target T2, Cytochrome P450 1A2 (Homo sapiens, UniProt P05177).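 Also: PubChem cytochrome P450 panel assay, CYP1A2 panel member.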
T2 sequence (P05177 whole entry): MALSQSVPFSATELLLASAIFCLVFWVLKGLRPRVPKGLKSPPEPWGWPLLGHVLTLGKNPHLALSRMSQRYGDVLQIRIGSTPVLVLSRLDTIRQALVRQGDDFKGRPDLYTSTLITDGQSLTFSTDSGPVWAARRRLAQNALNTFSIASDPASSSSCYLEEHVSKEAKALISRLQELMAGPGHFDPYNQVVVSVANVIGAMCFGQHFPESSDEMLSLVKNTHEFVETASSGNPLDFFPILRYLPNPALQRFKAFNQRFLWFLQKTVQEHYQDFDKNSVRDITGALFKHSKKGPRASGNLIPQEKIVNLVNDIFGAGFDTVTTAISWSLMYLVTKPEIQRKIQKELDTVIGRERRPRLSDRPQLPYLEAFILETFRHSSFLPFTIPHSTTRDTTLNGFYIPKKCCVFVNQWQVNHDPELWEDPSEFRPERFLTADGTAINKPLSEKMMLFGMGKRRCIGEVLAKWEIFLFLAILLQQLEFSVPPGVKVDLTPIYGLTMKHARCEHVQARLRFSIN

Assay [11] in a line: cytotoxicity toward NIH3T3 fibroblasts, dose response, counter-screen, cell-based, ATP luminescence, mouse fibroblasts (AID 2010).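 Also: cells exposed to compound for about 90 hours before reading.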 Format: functional.
Assay [12] in a line: inhibitors of intracellular T. cruzi replication, confirmation, NIH3T3 host cells, beta-gal luminescence (AID 2044).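 Also: intracellular parasites grown in NIH/3T3 mouse fibroblasts as host cells; luminescent beta-galactosidase reporter signal from transgenic T. cruzi replicating inside host cells; inhibitors lower the luminescence signal.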 The class given is functional, cell-based.
In assay [13] the target is FAD-linked sulfhydryl oxidase ALR (Homo sapiens, UniProt P55789). The experiment in a line: inhibitors of human ALR sulfhydryl oxidase, dose response, biochemical, H2O2 detection, luminescence, cherry-pick (AID 493248).
Chain of FAD-linked sulfhydryl oxidase ALR (P55789 whole entry): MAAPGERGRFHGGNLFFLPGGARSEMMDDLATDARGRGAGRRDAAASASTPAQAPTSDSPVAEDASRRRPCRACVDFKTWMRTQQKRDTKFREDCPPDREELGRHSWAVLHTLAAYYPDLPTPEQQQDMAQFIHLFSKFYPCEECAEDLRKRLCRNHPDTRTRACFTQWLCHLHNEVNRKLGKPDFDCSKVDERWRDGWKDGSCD

Chain of Cytochrome P450 2C9 (P11712 whole entry): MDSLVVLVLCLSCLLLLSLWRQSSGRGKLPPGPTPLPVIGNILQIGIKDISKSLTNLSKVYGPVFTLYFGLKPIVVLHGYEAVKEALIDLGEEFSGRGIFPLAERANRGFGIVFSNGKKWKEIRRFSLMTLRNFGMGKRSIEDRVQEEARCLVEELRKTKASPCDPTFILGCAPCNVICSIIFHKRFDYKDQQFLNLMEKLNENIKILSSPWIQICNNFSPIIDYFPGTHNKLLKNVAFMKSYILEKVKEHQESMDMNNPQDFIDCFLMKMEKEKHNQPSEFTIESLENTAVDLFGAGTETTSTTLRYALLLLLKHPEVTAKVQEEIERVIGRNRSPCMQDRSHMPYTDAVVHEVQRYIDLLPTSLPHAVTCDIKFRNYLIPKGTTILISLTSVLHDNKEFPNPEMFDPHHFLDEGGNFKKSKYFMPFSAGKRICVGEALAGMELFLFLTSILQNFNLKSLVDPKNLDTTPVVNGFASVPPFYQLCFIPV
Chain of Cytochrome P450 2C19 (P33261 whole entry): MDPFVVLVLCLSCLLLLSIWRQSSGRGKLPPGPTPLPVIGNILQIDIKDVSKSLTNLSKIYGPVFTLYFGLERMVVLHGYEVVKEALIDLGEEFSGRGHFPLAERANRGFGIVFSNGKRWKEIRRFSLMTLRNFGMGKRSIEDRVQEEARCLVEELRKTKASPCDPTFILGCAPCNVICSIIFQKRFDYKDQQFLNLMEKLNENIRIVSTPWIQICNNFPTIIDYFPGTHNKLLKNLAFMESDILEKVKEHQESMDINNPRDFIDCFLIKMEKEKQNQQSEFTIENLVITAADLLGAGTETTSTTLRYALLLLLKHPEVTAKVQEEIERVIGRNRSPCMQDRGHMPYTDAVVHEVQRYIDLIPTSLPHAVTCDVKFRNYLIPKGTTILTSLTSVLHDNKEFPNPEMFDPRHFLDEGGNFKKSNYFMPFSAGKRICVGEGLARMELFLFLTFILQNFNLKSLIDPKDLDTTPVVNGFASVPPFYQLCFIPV
Chain of Cytochrome P450 2D6 (P10635 whole entry): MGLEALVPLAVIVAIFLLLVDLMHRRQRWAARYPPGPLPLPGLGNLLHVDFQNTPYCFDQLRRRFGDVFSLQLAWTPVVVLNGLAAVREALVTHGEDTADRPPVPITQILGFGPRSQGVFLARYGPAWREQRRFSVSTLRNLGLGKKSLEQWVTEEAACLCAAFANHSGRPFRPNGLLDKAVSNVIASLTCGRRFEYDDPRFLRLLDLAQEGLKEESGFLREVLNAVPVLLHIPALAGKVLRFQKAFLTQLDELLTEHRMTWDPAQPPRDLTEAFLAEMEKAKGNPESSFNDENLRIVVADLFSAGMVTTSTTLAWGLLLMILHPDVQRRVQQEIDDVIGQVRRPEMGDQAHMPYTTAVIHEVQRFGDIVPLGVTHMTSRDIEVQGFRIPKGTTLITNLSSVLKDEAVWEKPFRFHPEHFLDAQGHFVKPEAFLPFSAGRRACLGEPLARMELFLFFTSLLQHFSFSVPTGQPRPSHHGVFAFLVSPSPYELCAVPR
Chain of Cytochrome P450 3A4 (P08684 whole entry): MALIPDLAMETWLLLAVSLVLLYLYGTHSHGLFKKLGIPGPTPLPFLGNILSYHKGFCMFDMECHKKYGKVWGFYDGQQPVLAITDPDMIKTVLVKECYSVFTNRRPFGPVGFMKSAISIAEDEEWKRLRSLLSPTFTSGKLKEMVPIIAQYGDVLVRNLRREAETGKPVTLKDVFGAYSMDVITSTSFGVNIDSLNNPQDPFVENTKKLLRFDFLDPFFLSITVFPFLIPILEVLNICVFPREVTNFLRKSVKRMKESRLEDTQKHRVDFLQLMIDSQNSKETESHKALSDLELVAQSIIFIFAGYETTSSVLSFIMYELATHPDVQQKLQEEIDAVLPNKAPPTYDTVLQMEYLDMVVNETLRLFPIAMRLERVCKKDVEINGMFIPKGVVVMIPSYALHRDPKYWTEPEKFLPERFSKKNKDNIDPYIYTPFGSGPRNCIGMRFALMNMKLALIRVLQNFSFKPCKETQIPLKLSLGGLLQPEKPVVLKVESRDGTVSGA
Chain of Luciferin 4-monooxygenase (P08659 whole entry): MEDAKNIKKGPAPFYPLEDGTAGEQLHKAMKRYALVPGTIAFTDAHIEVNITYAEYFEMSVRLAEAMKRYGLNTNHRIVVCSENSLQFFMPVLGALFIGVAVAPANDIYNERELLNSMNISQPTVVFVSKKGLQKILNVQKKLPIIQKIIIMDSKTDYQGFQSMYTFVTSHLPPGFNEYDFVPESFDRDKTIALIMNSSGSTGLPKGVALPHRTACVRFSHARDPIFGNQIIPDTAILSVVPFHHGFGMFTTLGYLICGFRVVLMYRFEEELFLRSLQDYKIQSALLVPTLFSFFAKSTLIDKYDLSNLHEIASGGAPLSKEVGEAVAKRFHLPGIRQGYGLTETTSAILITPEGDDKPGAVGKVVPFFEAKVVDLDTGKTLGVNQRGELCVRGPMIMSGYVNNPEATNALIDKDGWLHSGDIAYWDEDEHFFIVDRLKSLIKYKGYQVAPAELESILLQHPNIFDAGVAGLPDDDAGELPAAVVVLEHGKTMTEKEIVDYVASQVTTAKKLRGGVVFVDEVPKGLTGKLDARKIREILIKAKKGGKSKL

As to `CCOC(=O)c1c(C)nc2c(c1-c1ccc(Cl)cc1)C(=O)CC(C)(C)C2`, in assay [1], the AC50 is 12.2 µM (active).
Regarding `CCOC(=O)c1cc(NC(=O)COc2ccc([N+](=O)[O-])cc2)cc(C(=O)OCC)c1`, the EC50 in assay [2] is > 260 µM (inactive).
In the case of `Cc1ccc(S(=O)(=O)N2CCN(C(=O)CSc3ccc(Cl)cc3)CC2)cc1`, in assay [2], the EC50 is > 260 µM (inactive).
For `CC1(c2ccccc2)CC(C)(C)N(C(=O)CSc2nnc(N)s2)c2ccccc21` (stereo unspecified), the 50% cytotoxic concentration (CC50) in assay [3] is 22.9 µM (active).
For the compound `CCOc1ccc(CN(CCO)CCO)cc1C(=O)OC`, the concentration for a half-maximal effect (EC50) in assay [4] and in assay [5] was > 112 µM (not active) throughout.
For `CCOc1ccc2nc(O)c(O)nc2c1`, in assay [3], the CC50 is 45.8 µM (active).
In the case of `CCc1cc2c(nc1CC)CCN(CC/C(C)=N/OC)C2`, the AC50 in assay [6] and in assay [7] was 3.16 µM (inconclusive) in each case.
Regarding `CC(C)(Oc1ccc(Cl)cc1)C(=O)Nc1ccc2oc(-c3ccncc3)nc2c1`, the EC50 in assay [2] was > 260 µM (inactive).
As for `Cc1ccc(Cl)cc1NC(=O)c1cc(S(=O)(=O)N2CCOCC2)cn1C`, the EC50 in assay [4] and in [5] was > 112 µM (not active) throughout.
With `CCOC(=O)C(C)n1cnc2c(nnn2-c2ccc(F)cc2)c1=O` (stereo unspecified), the EC50 in [4] and in assay [5] was > 112 µM (not active) each time.
Take `O=C(Nc1ccc(O)c(-c2nc3ccccc3o2)c1)C1(c2ccc(Cl)cc2)CCCC1`: in assay [2], the EC50 is > 260 µM (inactive).
In the case of `Cc1cccc(C)c1NS(=O)(=O)c1ccc(NC(=O)c2ccc(Cl)c([N+](=O)[O-])c2)cc1`, the AC50 in assay [1] was 1.46 µM (active).
For the compound `c1ccc2c(C3=NN=C(NC4CC4)SC3)c[nH]c2c1`, the EC50 is > 112 µM (not active) in [4], > 260 µM (inactive) in assay [2] and 20.2 µM (active) in assay [5].
Consider `COc1ccccc1-c1ccc2ncnc(NCc3cnc(C)cn3)c2c1`, for which the figures for the AC50 in assay [8], in assay [6] and in [7] were 39.8 µM (inconclusive), 10 µM (inconclusive) and 39.8 µM (inconclusive), respectively.
On to `COc1ccc(CN(C(=O)CSc2nnc(-c3ccccc3F)o2)c2ccc(F)cc2)cc1`, for which the CC50 in assay [3] was 23.1 µM (active).
Turning to `COc1ccc(-c2cc(CCCC(=O)NCCc3ccc(OC)cc3OC)no2)cc1`, the concentration at half-maximal activity (AC50) in assay [9] was 0.562 µM (active); in [8], 1.41 µM (active); in [7] it was 1.12 µM (active); in assay [10], 0.562 µM (active). The EC50 in [2] is > 260 µM (inactive).
As for `CCCn1c(=N)n(CC(=O)c2ccco2)c2ccccc21`, the half-maximal activity concentration (AC50) was 35.5 µM (inconclusive) in assay [6] and 10 µM (inconclusive) in [10].
Turning to `CCc1cc(C(=O)c2ccc(OC)cc2)c(N)s1`, the EC50 in assay [2] was > 260 µM (inactive).
Regarding `CS(=O)(=O)N(CC(=O)Nc1c(F)cccc1F)c1ccc(C23CC4CC(CC(C4)C2)C3)cc1`, the EC50 in [11] was 10.6 µM (active); in assay [12], 2.25 µM (active). The half-maximal activity concentration (AC50) in assay [6] was 15.8 µM (inconclusive); in assay [7] it was 4.47 µM (inconclusive).
As for `Cc1cc(O)nc2c(C)cc(S(=O)(=O)Nc3ccc(O)cc3)cc12`, the AC50 in assay [13] was 1.3 µM (active).
Turning to `CC(C)[C@H](NC(=O)OC(C)(C)C)c1nnc(SCC(=O)Nc2ccc(Br)cc2)o1`, the concentration giving a half-maximal response (EC50) in assay [2] is 98.6 µM (active).
On to `O=C(Nc1nccs1)c1ccc(COc2ccccc2Cl)o1`, for which, in assay [1], the half-maximal activity concentration (AC50) was 2.45 µM (active).
In the case of `CCCCC(=O)OCc1cn(-c2ccc(Cl)cc2)nn1`, the concentration at half-maximal activity (AC50) in assay [8] was 2.24 µM (inconclusive); in assay [6], 39.8 µM (inconclusive); in [7], 25.1 µM (inconclusive).
For `O=C1CC(c2ccc(F)cc2)CC2=Nc3ccccc3NC=C12` (stereo unspecified), the concentration at half-maximal activity (AC50) in assay [1] is 3.58 µM (active).
For `CCc1ccc(NC(=O)CN2C(=O)CSC2=O)cc1`, in [13], the AC50 is 1.2 µM (active).
On the same count and under the same terms, in the case of `NC(=NO)c1cn(Cc2ccccc2Cl)c2ccccc12` it was 0.488 µM (active).
Turning to `N#Cc1cccc(NC(=O)N2CC[C@@]3(CCCN(C(=O)c4ccco4)C3)C2)c1`, the AC50 in assay [6] was 20 µM (inconclusive).
As to `CCOc1cc(C(=S)N2CCOCC2)ccc1OS(=O)(=O)c1ccc(C)cc1`, in assay [2], the EC50 was > 260 µM (inactive).
Take `O=C(O)c1c(Cl)c(Cl)c(Cl)c(Cl)c1C(=O)N1CCCC1`: the EC50 in assay [2] was > 260 µM (inactive).
In the case of `Cc1cccc(NC(=O)CC(C)S(=O)(=O)c2ccc3c(c2)NC(=O)CO3)c1C` (stereo unspecified), in assay [2], the EC50 is > 260 µM (inactive).
For the compound `COc1ccc(OC)c(C(c2nnnn2C2CCCC2)N2CCc3ccccc3C2)c1` (stereo unspecified), the 50% cytotoxic concentration (CC50) in [3] is 24 µM (active).
As for `COC(=O)C1CCN(C(=O)COC(=O)c2ccc(OC)c(S(=O)(=O)N3CCCc4ccccc43)c2)CC1`, the EC50 in assay [2] is > 260 µM (inactive).
On to `COc1ccc(Br)cc1C(=O)Nc1ccc(O)cc1`, for which the AC50 in assay [13] was 2.75 µM (active).
Take `CCN1CCCC1CNC(=O)C1c2cc(OC)c(OC)cc2C(=O)N(C)C1c1cccnc1` (stereo unspecified): the values for the concentration at half-maximal activity (AC50) in assay [9], in assay [8] and in [6] were 1.78 µM (inconclusive), 1.12 µM (inconclusive) and 5.62 µM (inconclusive), respectively.
For `Cc1ccc(NC(=O)CSCc2ccc(F)cc2)cc1`, the 50% effective concentration (EC50) in [4] and in [5] was > 112 µM (not active) throughout.
With `CNC(=O)[C@H]1O[C@H](n2cnc3c(NCc4cccc(I)c4)ncnc32)[C@@H](O)[C@@H]1O`, in [6], the half-maximal activity concentration (AC50) is 31.6 µM (inconclusive).
With `CC(NC(=O)c1cc(S(=O)(=O)N2CCCC2)cn1C)c1ccccc1` (stereo unspecified), the half-maximal effective concentration (EC50) in [4] and in assay [5] was > 112 µM (not active) each time.
Consider `COc1ccc(N2CCN(C(CNC(C)=O)c3ccc4c(c3)OCO4)CC2)cc1` (stereo unspecified), for which the AC50 in [13] was 4.58 µM (active).
Take `Cc1ccc(O)c(NC(=O)C2CCCN2C(=O)OCc2ccccc2)c1` (stereo unspecified): in assay [13], the half-maximal activity concentration (AC50) is 8.89 µM (active).
With `NC(=O)C1=C[C@@H](c2csc3ccccc23)C[C@@H](OCc2ccc(CO)cc2)O1`, in [3], the 50% cytotoxic concentration (CC50) was 15.5 µM (active).
With `Cc1ccc(/C=C/c2onc(C)c2S(=O)(=O)N2CCC(C(=O)N3CCCCC3)CC2)cc1`, the CC50 in assay [3] is > 50 µM (active).
In the case of `Cc1oncc1-c1csc(-c2ccccc2)n1`, the CC50 in assay [3] was 36.5 µM (active).
On to `CCN(CCNC(=O)c1ccc(C#N)cc1)c1cccc(C)c1`, for which the half-maximal activity concentration (AC50) in [13] was 1.75 µM (active).
Turning to `COc1ccc(OC)c(NC(=O)NNC(=O)COc2ccc(-c3ccccc3)cc2)c1`, the AC50 in assay [1] was 47.3 µM (active).
Turning to `CCc1ccc(CN2C(=O)c3ccccc3C2C(=O)NCC2CCCO2)cc1` (stereo unspecified), in assay [2], the 50% effective concentration (EC50) was 137 µM (active).
As for `O=C(NCCc1ccccc1)C(=O)NCC1(c2ccccc2)CCCC1`, the half-maximal activity concentration (AC50) in [8] is 39.8 µM (inconclusive); in assay [6], 3.16 µM (inconclusive).
On to `NC(=O)NC(=O)CSc1nnc(-c2ccco2)n1Cc1ccccc1`, for which the AC50 is 12.6 µM (inconclusive) in [9] and 25.1 µM (inconclusive) in [6].
Turning to `COc1ccc(Br)cc1/C=N/Nc1ccc(Cl)c(C(=O)O)c1`, in assay [13], the concentration at half-maximal activity (AC50) is 6.26 µM (active).
As for `COc1nc(Oc2ccc(/C=N/O)cc2)nc(N(C)C)n1`, the values for the half-maximal activity concentration (AC50) in assay [8], in assay [13] and in assay [7] were 17.8 µM (inconclusive), 2.99 µM (active) and 22.4 µM (inconclusive), respectively.
As to `Cc1[nH]c2ccccc2c1/C=N/O`, the half-maximal activity concentration (AC50) in [13] is 20.2 µM (active).

The record behind these values is ChEMBL document CHEMBL1201862, “PubChem BioAssay data set” (2004).
